Results from patent publication US10828305B2 (SHANGHAI PHARMACEUTICALS HOLDING CO., LTD., priority 2016, dated 2020).

How the values were obtained:
ErbB2 kinase = ErbB2 kinase (Homo sapiens, UniProt P04626); test: Enzymatic experiment on ErbB2 (HTRF kinEASE-TK); format: biochemical; conditions: ATP 4 μM; read-out: Kinase IC50 (nM) in vitro ErbB2
Protocol: (§1) Enzymatic Experiment on EGFR/ErbB2
(§2) Firstly, preparing 1× reaction buffer required for the kinase, 5× Enzymatic buffer (HEPES 20 mM pH7.0, NaN3 0.1%, BSA 0.05%, sodium orthovanadate 0.5 mM) in the HTRF kinEASE-TK kit was diluted to 1 time with deionized water, 50 nM Supplement Enzymatic buffer (SEB reagent), 1 mM MnCl2, 5 mM MgCl2 and 1 mM DTT were added. Secondly, preparing 5× compound, 10 mM test compound stock solution was diluted in multiple steps with DMSO in a 96-well compound plate to prepare 100× compound as initial concentration, which was then used as the first concentration to perform a 3-fold gradient dilution with DMSO to obtain 10 concentrations. Afterwards, 1 μl gradient dilution was added to 19 μl 1× reaction buffer to prepare 5× compound for use. Then 2 μl 5× compound was transferred from the 96 well plate into a 384-well plate. To the compound-free control wells was added with 2 μl the following liquid: 19 μl 1× reaction buffer with addition of 1 μl DMSO. To the blank control wells was added 2 μl 250 mM EDTA. The third step was enzymatic reaction, the kinase, substrate (TK Substrate-biotin) and ATP were formulated into 2.5× enzyme/substrate mixture and 2.5×ATP solution using 1× reaction buffer respectively. The final concentration of ErbB2 kinase was 0.06 ng/μl, the final concentration of ATP was 4 μM; the final concentration of EGFR kinase was 0.06 units/μl, the final concentration of ATP was 1.65 μM; 4 μl 2.5× enzyme/substrate mixture was added to a 384-well plate, which was incubated at room temperature for 5 minutes; 4 μl 2.5×ATP solution was added to each well and the mixture was allowed to react for 30 minutes at room temperature. The fourth step was termination of the reaction, HTRF Detection buffer was used to prepare a mixture of 2×TK Antibody-Eu(K) and Sa-XL665, the amount of TK Antibody-Eu(K) was 5 μl per well. After the enzymatic reaction was performed for 30 minutes, 10 μl of the above liquid was added to the 384-well plate and the mixture was allowed to react at room temperature for 1 hour. The data was measured on EnVision™, the laser of 337 nm wavelength was selected as the excitation light, RFU665 nM and RFU620 nM were measured, and […]/RFU620 nM×10000 was used as the final data for analysis.

EGFR kinase = EGFR kinase (Homo sapiens, UniProt P00533); test: Enzymatic experiment on EGFR (HTRF kinEASE-TK); format: biochemical; conditions: ATP 1.65 μM; read-out: Kinase IC50 (nM) in vitro EGFR
Protocol: as §1, §2

N87 = test: Proliferation inhibition assay in vitro, N87 (CellTiter-Glo); format: cell-based; conditions: Homo sapiens; 72 hours; read-out: IC50(nM) cell N87
Protocol: (§3) Proliferation Inhibition Assay In Vitro of Cell Lines
(§4) 1. Cell culture and inoculation: on the first day of the experiment, normal cultured cells were taken in the exponential growth phase, the cells were dispersed by digesting, then the cell density was adjusted to 8.8×10^4 cells/mL for BT-474 and 6.6×10^4 cells/mL for N87, 90 μl of which were inoculated to each well in a 96-well cell culture plate; after inoculation, the microplate was placed at condition of 37° C., 5% CO2 overnight. 2. Dosing to cells: on the second day of the experiment, the microplate was taken out from incubator, […], of 10× compound was separately added to each well of the microplate, 2 duplicated wells were set for each concentration, 9 dosing concentrations were set for each compound. According to different cell lines, the initial concentration of each compound was different. Upon completion of addition, the microplate was placed at condition of 37° C., 5% CO2 for 72 hours. 3. Data acquisition: the microplate was taken out from the incubator and allowed to stand at room temperature to equilibrate for 30 minutes. 100 μl CellTiter-Glo® Luminescent Cell Viability Assay reaction solution which had been equilibrated at room temperature was added to each well and the microplate was shaken at 1300 rpm for 2 minutes at room temperature. The microplate was centrifuged at 2000 rpm for 1 minute in a HERAEUS Multifuge X1R and then allowed to equilibrate at room temperature for 10 minutes. The […] signal was measured on EnVision™.

BT-474 = test: Proliferation inhibition assay in vitro, BT-474 (CellTiter-Glo); format: cell-based; conditions: Homo sapiens, 72 hours, read-out: IC50(nM) cell BT-474
Protocol: as §3, §4

Sequence of EGFR kinase (P00533 25-1210): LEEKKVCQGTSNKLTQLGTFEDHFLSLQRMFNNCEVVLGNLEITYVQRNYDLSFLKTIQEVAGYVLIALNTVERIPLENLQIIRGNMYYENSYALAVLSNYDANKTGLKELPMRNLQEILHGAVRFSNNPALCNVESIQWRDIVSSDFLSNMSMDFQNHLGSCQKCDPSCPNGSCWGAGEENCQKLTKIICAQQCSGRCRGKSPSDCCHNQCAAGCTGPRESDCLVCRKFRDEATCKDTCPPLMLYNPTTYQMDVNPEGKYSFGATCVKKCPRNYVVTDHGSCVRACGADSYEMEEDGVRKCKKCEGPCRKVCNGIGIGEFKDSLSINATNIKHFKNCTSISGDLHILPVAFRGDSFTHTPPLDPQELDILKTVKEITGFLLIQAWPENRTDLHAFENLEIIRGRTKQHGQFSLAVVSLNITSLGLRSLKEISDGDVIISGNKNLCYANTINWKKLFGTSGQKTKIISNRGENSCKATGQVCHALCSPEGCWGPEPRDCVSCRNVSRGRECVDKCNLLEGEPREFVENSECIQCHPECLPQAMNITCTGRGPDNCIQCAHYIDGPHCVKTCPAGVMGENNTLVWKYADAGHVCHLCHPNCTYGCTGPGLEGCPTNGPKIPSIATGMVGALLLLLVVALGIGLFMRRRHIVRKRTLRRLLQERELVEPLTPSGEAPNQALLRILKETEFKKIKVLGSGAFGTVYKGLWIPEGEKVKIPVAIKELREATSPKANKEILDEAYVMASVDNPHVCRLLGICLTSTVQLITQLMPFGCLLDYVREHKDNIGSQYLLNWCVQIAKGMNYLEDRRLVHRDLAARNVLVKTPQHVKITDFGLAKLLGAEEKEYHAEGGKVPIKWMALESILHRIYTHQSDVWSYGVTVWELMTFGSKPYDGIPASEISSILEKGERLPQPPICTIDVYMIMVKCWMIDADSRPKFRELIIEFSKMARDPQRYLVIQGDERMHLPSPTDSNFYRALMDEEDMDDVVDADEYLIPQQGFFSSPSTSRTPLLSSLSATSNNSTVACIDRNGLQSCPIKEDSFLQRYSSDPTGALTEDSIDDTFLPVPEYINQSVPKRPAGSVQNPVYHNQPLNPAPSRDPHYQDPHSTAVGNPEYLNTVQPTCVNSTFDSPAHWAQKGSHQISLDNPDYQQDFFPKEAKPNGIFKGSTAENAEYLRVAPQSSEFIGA
Sequence of ErbB2 kinase (P04626 23-1255): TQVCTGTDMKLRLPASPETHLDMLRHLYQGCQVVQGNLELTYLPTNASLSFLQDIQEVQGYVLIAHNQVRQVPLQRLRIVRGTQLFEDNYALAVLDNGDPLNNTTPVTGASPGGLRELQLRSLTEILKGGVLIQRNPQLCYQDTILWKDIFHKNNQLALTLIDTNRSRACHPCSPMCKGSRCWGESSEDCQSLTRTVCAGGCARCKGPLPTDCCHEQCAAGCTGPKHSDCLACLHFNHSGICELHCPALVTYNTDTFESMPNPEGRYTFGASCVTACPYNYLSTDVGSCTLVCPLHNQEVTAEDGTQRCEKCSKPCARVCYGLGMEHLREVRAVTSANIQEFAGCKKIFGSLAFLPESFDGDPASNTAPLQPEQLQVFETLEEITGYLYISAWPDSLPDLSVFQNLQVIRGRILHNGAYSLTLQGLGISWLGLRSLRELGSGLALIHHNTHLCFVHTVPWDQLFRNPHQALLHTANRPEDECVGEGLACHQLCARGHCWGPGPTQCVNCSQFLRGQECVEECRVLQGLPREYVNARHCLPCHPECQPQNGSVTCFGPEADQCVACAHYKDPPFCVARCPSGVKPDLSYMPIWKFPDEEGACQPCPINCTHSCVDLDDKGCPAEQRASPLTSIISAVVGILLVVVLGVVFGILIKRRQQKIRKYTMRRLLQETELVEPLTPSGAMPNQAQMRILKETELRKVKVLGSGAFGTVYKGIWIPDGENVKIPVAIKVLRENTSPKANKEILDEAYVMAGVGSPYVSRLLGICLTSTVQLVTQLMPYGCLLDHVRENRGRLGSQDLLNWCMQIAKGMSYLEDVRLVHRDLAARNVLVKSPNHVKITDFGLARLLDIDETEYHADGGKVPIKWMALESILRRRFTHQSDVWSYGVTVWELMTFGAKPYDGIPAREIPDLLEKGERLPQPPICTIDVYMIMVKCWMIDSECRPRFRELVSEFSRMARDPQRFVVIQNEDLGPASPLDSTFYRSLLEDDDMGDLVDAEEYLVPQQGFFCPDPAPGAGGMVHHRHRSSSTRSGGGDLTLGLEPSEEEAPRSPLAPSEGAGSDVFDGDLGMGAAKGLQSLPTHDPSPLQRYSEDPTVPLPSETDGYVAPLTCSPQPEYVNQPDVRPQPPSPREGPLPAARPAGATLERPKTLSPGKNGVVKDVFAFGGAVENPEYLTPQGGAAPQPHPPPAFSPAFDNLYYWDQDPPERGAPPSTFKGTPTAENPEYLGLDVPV

| Compound | IC50 (ErbB2 kinase) | IC50 (EGFR kinase) | IC50 (N87) | IC50 (BT-474) |
| --- | --- | --- | --- | --- |
| Cc1cc(Nc2ncnc3ccc(NC4=NC(C)(C)CO4)cc23)ccc1Oc1cc2nccn2cn1 [Embodiment 3, N^6-(4,4-dimethyl-4,5-dihydrooxazol-2-yl)-N^4-(4-(imidazo[1,2-c]pyrimidin-7-yloxy)-3-methylphenyl)quinazoline-4,6-diamine] | 1.1 nM | 18.7 nM | 48.7 nM | 38.5 nM |
| Cc1cc(Nc2ncnc3ccc(Br)cc23)ccc1Oc1cc2nncn2cn1 [Embodiment 5, N-(4-([1,2,4]triazolo[4,3-c]pyrimidin-7-yloxy)-3-methylphenyl)-6-bromoquinazolin-4-amine] | 12.9 nM | 703 nM | 313 nM | 460 nM |
| Cc1cc(Nc2ncnc3ccc(NC4=N[C@H](C)CO4)cc23)ccc1Oc1cc2nncn2cn1 [Embodiment 7, (R)—N^4-(4-([1,2,4]triazolo[4,3-c]pyrimidin-7-yloxy)-3-methylphenyl)-N^6-(4-methyl-4,5-dihydrooxazol-2-yl)quinazoline-4,6-diamine] | 8.1 nM | 164 nM | 71 nM | 45 nM |
| Cc1cc(Nc2ncnc3ccc(NC4=N[C@@H](C)CO4)cc23)ccc1Oc1cc2nncn2cn1 [Embodiment 8] | 7.8 nM | 115 nM | 68.7 nM | 43.4 nM |
| Cc1cc(Nc2ncnc3ccc(NC4=NC(C)(C)CS4)cc23)ccc1Oc1cc2nncn2cn1 [Embodiment 9, N^4-(4-([1,2,4]triazolo[4,3-c]pyrimidin-7-yloxy)-3-methylphenyl)-N^6-(4,4-dimethyl-4,5-dihydrothiazol-2-yl)quinazoline-4,6-diamine] | 7.4 nM | 35.9 nM | 39.5 nM | 33.4 nM |
| Cc1cc(Nc2ncnc3ccc(NC(=O)N4CCN(C)CC4)cc23)ccc1Oc1cc2nncn2cn1 [Embodiment 10, N-(4-((4-([1,2,4]triazolo[4,3-c]pyrimidin-7-yloxy)-3-methylphenyl)amino)quinazolin-6-yl)-4-methylpiperazine-1-carboxamide] | 12.6 nM | 143 nM | 200 nM | 92.3 nM |
| Cc1cc(Nc2ncnc3ccc(NC(=S)NC(C)(CO)CO)cc23)ccc1Oc1cc2nncn2cn1 [Embodiment 12, 1-(4-((4-([1,2,4]triazolo[4,3-c]pyrimidin-7-yloxy)-3-methylphenyl)amino)quinazoline-6-yl)-3-(1,3-dihydroxy-2-methylpropan-2-yl)thiourea] | 4.3 nM | 231 nM | 482 nM | 136 nM |
| Cc1cc(Nc2ncnc3ccc(NC4=NC(C)(CO)CO4)cc23)ccc1Oc1cc2nncn2cn1 (stereo not shown) [Embodiment 13, (2-((4-((4-([1,2,4]triazolo[4,3-c]pyrimidin-7-yloxy)-3-methylphenyl)amino)quinazolin-6-yl)amino)-4-methyl-4,5-dihydrooxazol-4-yl)methanol] | 2.6 nM | 15.2 nM | 204 nM | 47.9 nM |
| COCC(=O)NC/C=C/c1ccc2ncnc(Nc3ccc(Oc4cc5nncn5cn4)c(C)c3)c2c1 [Embodiment 14, 2-methoxy-N-((E)-3-(4-(3-methyl-4-([1,2,4]triazolo[4,3-c]pyrimidin-7-yloxy)anilino)-6-quinazolinyl)allyl)acetamide] | 1.7 nM | 115 nM | 94.1 nM | 35.2 nM |
| Cc1cc(Nc2ncnc3ccc(-c4ccc(CNCCS(C)(=O)=O)o4)cc23)ccc1Oc1cc2nncn2cn1 [Embodiment 15, N-(4-([1,2,4]triazolo[4,3-c]pyrimidin-7-yloxy)-3-methylphenyl)-6-(5-(((2-(methylsulfonyl)ethyl)amino)methyl)furan-2-yl)quinazolin-4-amine] | 1.2 nM | 14.9 nM | 33.2 nM | 17.4 nM |
| C=C(F)C(=O)Nc1ccc2ncnc(Nc3ccc(Oc4cc5nncn5cn4)c(C)c3)c2c1 [Embodiment 16, N-(4-((4-([1,2,4]triazolo[4,3-c]pyrimidin-7-yloxy)-3-methylphenyl)amino)quinazolin-6-yl)-2-fluoroacrylamide] | 3.4 nM | 32.3 nM | 5.6 nM | 7.7 nM |
| Cc1cc(Nc2ncnc3ccc(NC(=O)CC(C)(C)O)cc23)ccc1Oc1cc2nncn2cn1 [Embodiment 17, N-(4-((4-([1,2,4]triazolo[4,3,c]pyrimidin-7-yloxy)-3-methylphenyl)amino)quinoline-6-yl)-3-hydroxy-3-methylbutanamide] | 7.9 nM | 80.9 nM | 712 nM | 304 nM |
| CC1(C)COC(Nc2ccc3ncnc(Nc4ccc(Oc5cc6nncn6cn5)c(F)c4)c3c2)=N1 [Embodiment 19, N^4-(4-([1,2,4]triazolo[4,3-c]pyrimidin-7-yloxy)-3-fluorophenyl)-N^6-(4,4-dimethyl-4,5-dihydrooxazol-2-yl)-quinazoline-4,6-diamine] | 3.3 nM | 22.1 nM | 125 nM | 98.2 nM |
| Cc1cc(Nc2ncnc3ccc(-c4ccco4)cc23)ccc1Oc1cc2nncn2cn1 [Embodiment 21, N-(4-([1,2,4]triazolo[4,3-c]pyrimidin-7-yloxy)-3-methylphenyl)-6-(furan-2-yl)-quinazolin-4-amine] | 2.2 nM | 43.5 nM | 73.8 nM | 140 nM |
| Cc1cc(Nc2ncnc3ccc(-c4ccc(CN5CCN(S(C)(=O)=O)CC5)o4)cc23)ccc1Oc1cc2nncn2cn1 [Embodiment 22, N-(4-([1,2,4]triazolo[4,3-c]pyrimidin-7-yloxy)-3-methylphenyl)-6-(5-((4-(methanesulfonyl)piperazin-1-yl)methyl)furan-2-yl)quinazolin-4-amine] | 4.1 nM | 18 nM | 35.6 nM | 40.7 nM |
| COc1cc2ncnc(Nc3ccc(Oc4cc5nncn5cn4)c(C)c3)c2cc1OC1CCN(C(=O)/C=C/CN(C)C)CC1 [Embodiment 23] | 5.2 nM | 0.7 nM | 55.7 nM | 79.5 nM |
| Cc1cc(Nc2ncnc3ccc(NC4=NCC(C)O4)cc23)ccc1Oc1cc2nncn2cn1 (stereo not shown) [Embodiment 24, N^4-(4-([1,2,4]triazolo[4,3-c]pyrimidin-7-yloxy)-3-methylphenyl)-N^6-(5-methyl-4,5-dihydrooxazol-2-yl)quinazoline-4,6-diamine] | 4.1 nM | 127 nM | 177 nM | 128 nM |
| Cc1cc(Nc2ncnc3ccc(NC4=NCC5(CCN(C(=O)OC(C)(C)C)CC5)O4)cc23)ccc1Oc1cc2nncn2cn1 [Embodiment 25, tert-butyl 2-((4-((4-([1,2,4]triazolo[4,3-c]pyrimidin-7-yloxy)-3-methylphenyl)amino)quinazolin-6-yl)amino)-1-oxa-3,8-diazaspiro[4.5]dec-2-en-8-carboxylate] | 53.3 nM | 499 nM | 464 nM | 984 nM |
| Cc1cc(Nc2ncnc3ccc(NC4=NC5(CO4)CN(C(=O)OC(C)(C)C)C5)cc23)ccc1Oc1cc2nncn2cn1 [Embodiment 26] | 3.8 nM | 96.8 nM | 130 nM | 122 nM |
| Cc1cc(Nc2ncnc3ccc(NC4=NC(C)(C)CO4)cc23)ccc1Oc1ccn2ncnc2c1 [drawing 219, reference compound] | – | 57.6 nM | 13.2 nM | 14.2 nM |
